The text below walks through data of patent US7605176B2 (Boehringer Ingelheim International GmbH, priority 2004, dated 2009).

One data set deals with T1, hMCH-1R (Homo sapiens, UniProt Q99705).
T1 construct: expressed in transfected cells
The data set is described as follows: MCH-1 receptor binding test (125I-MCH binding to membranes of hMCH-1R transfected CHO/Galpha16 cells). The conditions noted are these: competition with 100 pM 125I-MCH, membranes of CHO/Galpha16 cells stably transfected with hMCH-1R. The procedure:
Membranes from CHO/Galpha16 cells stably transfected with human hMCH-1R are resuspended using a syringe (needle 0.6×25 mm) and diluted in test buffer (50 mM HEPES, 10 mM MgCl2, 2 mM EGTA, pH 7.00; 0.1% bovine serum albumin (protease-free), 0.021% bacitracin, 1 μg/mL aprotinin, 1 μg/mL leupeptin, and 1 μM phosphoramidone) to a concentration of 5 to 15 μg/mL.
After the incubation the reaction is filtered using a cell harvester through 0.5% PEI treated fiberglass filters (GF/B, Unifilter Packard). The membrane-bound radioactivity retained on the filter is then determined after the addition of scintillator substance (Packard Microscint 20) in a measuring device (TopCount of Packard).
The analysis of the concentration binding curve is carried out on the assumption of one receptor binding site.

pIC50: −log10 of the molar value.

T1 sequence (Q99705 whole entry): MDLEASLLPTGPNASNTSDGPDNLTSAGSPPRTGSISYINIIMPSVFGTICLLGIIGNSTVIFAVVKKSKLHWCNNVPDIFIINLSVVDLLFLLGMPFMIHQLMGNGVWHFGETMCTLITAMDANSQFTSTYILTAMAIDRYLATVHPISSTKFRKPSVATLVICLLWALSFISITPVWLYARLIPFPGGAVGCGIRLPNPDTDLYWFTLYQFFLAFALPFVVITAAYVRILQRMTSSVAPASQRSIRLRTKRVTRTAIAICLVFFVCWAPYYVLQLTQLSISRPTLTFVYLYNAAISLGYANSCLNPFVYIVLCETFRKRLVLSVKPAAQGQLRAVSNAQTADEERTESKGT

For `CC1CCN(CCOc2ccc(NC(=O)CC(=O)c3ccc(-c4ccccc4)cc3)cc2Cl)CC1` [Example 1, 3-biphenyl-4-yl-N-{3-chloro-4-[2-(4-methylpiperidin-1-yl)ethoxy]phenyl}-3-oxopropionamide], the melting point lay within 135 to 139 °C.
Still for that read-out and setting: as for `COC(=O)c1cc(NC(=O)CC(=O)c2ccc(-c3ccccc3)cc2)ccc1OCCN1CCCC1` [Example 1.9, methyl 5-(3-biphenyl-4-yl-3-oxopropionylamino)-2-(2-pyrrolidin-1-ylethoxy)benzoate], the figure is 131 to 135 °C.
Take `O=C(CC(=O)c1ccc(-c2ccccc2)cc1)NCCc1ccc(CN2CCCC2)cc1` [Example 5.1]: the melting point fell in the range of 121 to 125 °C. Also, on hMCH-1R, the pIC50 was 7.20.
Compound `CCN(CC)CCOc1ccc(NC(=O)CC(=O)c2ccc(-c3ccccc3)cc2)cc1Cl` [Example 7, 3-biphenyl-4-yl-N-[3-chloro-4-(2-diethylaminoethoxy)phenyl]-3-oxopropionamide] yielded a melting point of 148 to 151 °C.
With `CCN(CC)CCOc1ccc(NC(=O)CC(=O)c2ccc(C(F)(F)F)cc2Cl)cc1Cl` [Example 7.1], on hMCH-1R, the pIC50 is 7.46.
For the compound `O=C(CC(=O)c1ccc(-c2ccccc2)cc1)Nc1ccc(OCCN2CCCC2)c(C(=O)O)c1` [Example 8, 5-(3-biphenyl-4-yl-3-oxopropionylamino)-2-(2-pyrrolidin-1-ylethoxy)benzoic acid], the melting point lay in the range of 236 to 240 °C.
